Source: patent US20230286973A1, “PROTEIN SECRETION INHIBITORS” (KEZAR LIFE SCIENCES, priority 2020, published 2023)
Like-named read-outs stand apart in the source and are kept apart here.

Tests used:
[1] = tested on: HER3-ss+4aa/Gaussia Luciferase; assay: Dox-Induced Her3-ss-Gluc Assay; assay type: cell-based; conditions: 24 hr Dox induction, 293FRT/TO cells, read-out: 24 hr Dox Inducible Her3(ss + 4)Gluc 293FRT/TO: Mean IC50
Summary of the method: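 Expression of a Gaussia luciferase reporter carrying the HER3 signal sequence plus 4 amino acids is induced by doxycycline in stably transfected Flp-In 293 T-REx cells. Compounds are added with doxycycline at 37° C., 5% CO2. Undefined stereocentres denote stereoisomer mixtures.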

[2] = tested on: TNFα-FL/Gaussia Luciferase; assay: Dox Induced TNFα-FL-Gluc Assay; assay type: cell-based; conditions: for IC50: 24 hr Dox induction, 293FRT/TO cells, read-out: 24 hr Dox Inducible TNFaFLGluc 293FRT/TO: Mean IC50; for 24 hr Dox Inducible TNFaFLGluc 293FRT/TO: TNF/PD1: ratio of TNFaFLGluc IC50 to PD1ssGluc IC50
Summary of the method: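 Cells are seeded one day ahead, then treated with compound plus doxycycline at 37 °C, 5% CO2. The stable Flp-In 293 T-REx line expresses full-length TNFα (amino acids 1-233) with Gaussia luciferase fused to its 3′ end, inducibly via T-REx.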

[3] = Liver Microsome Stability Assay (mouse); conditions: mouse liver microsomes, with NADPH, 1.0 uM compound
Procedure: (§1) Stability of a compound was assessed in the presence of liver microsomes from various sources—mouse, rat, monkey and human liver microsomes. 1.0 uM compound, 0.4% DMSO in 0.1 M Potassium Phosphate with 1.0 mg/mL liver microsomes, were incubated at 37° C. with or without 1 mM NADPH. The samples were quenched at 0, and 30 minutes.

[4] = tested on: multiple myeloma cell line NCI-H929; assay: H929 Cell Viability Assay; assay type: cell-based, human; conditions: Homo sapiens, NCI-H929, 48 h, NCI-H929 cells, Celltiter-Glo
Summary of the method: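 Plate the myeloma cells in RPMI 1640 with 10% FBS, add serially diluted compound, incubate for 48 hours at 37° C, then add CellTiter-Glo and read luciferase signal.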

[5] = tested on: PD1-ss+10aa/Gaussia Luciferase; assay: Dox-Induced PD1-ss-Gluc Assay; assay type: cell-based; conditions: 24 hr Dox induction, 293FRT/TO cells, read-out: 24 hr Dox Inducible PD1ssGluc 293FRT/TO: Mean IC50
Summary of the method: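 Flp-In 293 T-REx cells stably carrying a doxycycline-inducible Gaussia luciferase fused to the PD1 signal sequence plus 10 aa were plated the day before. Compound dilutions in DMSO/media containing doxycycline were then added and incubated at 37 °C, 5% CO2. Data for undefined stereochemistry refer to stereoisomer mixtures.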

[6] = Liver Microsome Stability Assay (rat); conditions: rat liver microsomes, with NADPH, 1.0 uM compound
Procedure: as §1

[7] = Liver Microsome Stability Assay (monkey); conditions: monkey liver microsomes, with NADPH, 1.0 uM compound
Procedure: as §1

[8] = tested on: multiple myeloma cell line U266B1; assay: U266 Cell Viability Assay; assay type: cell-based, human; conditions: Homo sapiens, U-266, 48 h, U266B1 cells, Celltiter-Glo
Summary of the method: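 48 h treatment, 37° C./5% CO2, RPMI 1640 + 10% FBS; viability by CellTiter-Glo luminescence.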

[9] = tested on: IL-2-FL/Gaussia Luciferase; assay: Dox Induced IL2-FL-Gluc Assay; assay type: cell-based; conditions: for IC50: 24 hr Dox induction, 293FRT/TO cells, read-out: 24 hr Dox Inducible IL2FLGluc 293FRT/TO: Mean IC50; for 24 hr Dox Inducible IL2FLGluc 293FRT/TO: IL2/PD1: ratio of IL2FLGluc IC50 to PD1ssGluc IC50
Summary of the method: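 Reporter is Gaussia luciferase fused to the 3′ end of full-length IL-2 (aa 1-153), expressed from a doxycycline-inducible T-REx construct in stably selected Flp-In 293 cells. Compounds were co-added with doxycycline and incubated at 37° C, 5% CO2.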

[10] = Liver Microsome Stability Assay (human); conditions: human liver microsomes, with NADPH, 1.0 uM compound
Procedure: as §1

[11] = '<=>' given where both are I.A.

Row | IC50 [1] | IC50 [2] | Liver Microsome Stability (Multiple Species): Mouse - % Remaining after 30 min w/NADPH [3] | EC50 [4] | IC50 [5] | Liver Microsome Stability (Multiple Species): Rat - % Remaining after 30 min w/NADPH [6] | Liver Microsome Stability (Multiple Species): Monkey - % Remaining after 30 min w/NADPH [7] | EC50 [8] | IC50 [9] | Liver Microsome Stability (Multiple Species): Human - % Remaining after 30 min w/NADPH [10] | IC50 ([1]; mean) | IC50 ([2]; mean) | IC50 ([5]; mean) | IC50 ([9]; mean) | Compound | 24 hr Dox Inducible TNFaFLGluc 293FRT/TO: TNF/PD1 [2] | 24 hr Dox Inducible IL2FLGluc 293FRT/TO: IL2/PD1 [9] | 24 hr Dox Inducible TNFaFLGluc 293FRT/TO: TNF/PD1 [2, 11] | 24 hr Dox Inducible IL2FLGluc 293FRT/TO: IL2/PD1 [9, 11]
1 | 82.1 nM | 758 nM | 36.3% | 3270 nM | 49.2 nM | 51.6% | 0.71% | > 25000 nM | 130 nM | 17.4% | – | – | – | – | NS(=O)(=O)N1CC(Oc2ccc(N3CCC[C@@H]3c3csc(NC(=O)c4cccn4Cc4ccnc(F)c4)n3)cc2)C1 [Compound A150, (R)-1-((2-fluoropyridin-4-yl)methyl)-N-(4-(1-(4-((1-sulfamoylazetidin-3-yl)oxy)phenyl)pyrrolidin-2-yl)thiazol-2-yl)-1H-pyrrole-2-carboxamide] | 15.4 | 2.6 | – | –
2 | – | – | 22.1% | 3650 nM | – | 1.85% | 0.6% | > 25000 nM | – | 7.36% | 60.4 nM | 529 nM | 29.1 nM | 115 nM | O=C(Nc1nc([C@H]2CCCN2c2cccnc2)cs1)c1cccn1Cc1ccncc1 [Compound E46, (R)-N-(4-(1-(pyridin-3-yl)pyrrolidin-2-yl)thiazol-2-yl)-1-(pyridin-4-ylmethyl)-1H-pyrrole-2-carboxamide] | – | – | 18.1 | 3.9
3 | – | – | 1.51% | 126 nM | – | 15.4% | 0.19% | > 25000 nM | – | 0.69% | 8.52 nM | 43 nM | 2.94 nM | 9.89 nM | Cc1ccc(N2CCC[C@@H]2c2csc(NC(=O)c3cccn3Cc3ccncc3)n2)nc1 [Compound E62, (R)-N-(4-(1-(5-methylpyridin-2-yl)pyrrolidin-2-yl)thiazol-2-yl)-1-(pyridin-4-ylmethyl)-1H-pyrrole-2-carboxamide] | – | – | 14.6 | 3.4
4 | 26.8 nM | 155 nM | 9.36% | 430 nM | 16 nM | 15.4% | 0.36% | > 25000 nM | 25.7 nM | 4.21% | – | – | – | – | O=C(Nc1nc([C@H]2CCCN2c2ccc(O[C@H]3CCOC3)cc2)cs1)c1cccn1Cc1ccncc1 [Compound A4, 1-(pyridin-4-ylmethyl)-N-(4-((R)-1-(4-(((S)-tetrahydrofuran-3-yl)oxy)phenyl)pyrrolidin-2-yl)thiazol-2-yl)-1H-pyrrole-2-carboxamide] | 9.69 | 1.6 | – | –
5 | 10600 nM | > 25000 nM | 0.03% | > 25000 nM | 7150 nM | 0.16% | 0.06% | > 25000 nM | > 25000 nM | 0.95% | – | – | – | – | CC(C)c1nc(/C=C/c2csc(NC(=O)c3cccn3Cc3ccncc3)n2)cn1C [Compound B72, (E)-N-(4-(2-(2-isopropyl-1-methyl-1H-imidazol-4-yl)vinyl)thiazol-2-yl)-1-(pyridin-4-ylmethyl)-1H-pyrrole-2-carboxamide] | >3.50 | >3.5 | – | –
6 | – | – | 14.2% | 4050 nM | – | 6.85% | 0.21% | > 25000 nM | – | 12.8% | 129 nM | 731 nM | 78.4 nM | 238 nM | C[C@@H](CC#N)Cn1cccc1C(=O)Nc1nc([C@H]2CCCN2c2ccccc2)cs1 [Compound C87, 1-((S)-3-cyano-2-methylpropyl)-N-(4-((R)-1-phenylpyrrolidin-2-yl)thiazol-2-yl)-1H-pyrrole-2-carboxamide] | – | – | 9.32 | 3
7 | 735 nM | 4840 nM | 32.1% | 15900 nM | 25.5 nM | 4.04% | 10.8% | > 25000 nM | 2100 nM | 5.82% | – | – | – | – | O=C(Nc1nc(/C=C/c2ncoc2C2CCCCC2)cs1)c1cccn1Cc1ccncc1 [Compound B52, (E)-N-(4-(2-(5-cyclohexyloxazol-4-yl)vinyl)thiazol-2-yl)-1-(pyridin-4-ylmethyl)-1H-pyrrole-2-carboxamide] | 190 | 82 | – | –
8 | 877 nM | > 25000 nM | 20% | > 25000 nM | 1020 nM | 31.1% | 0.06% | > 25000 nM | > 25000 nM | 0.55% | – | – | – | – | CC(C)c1cc(/C=C/c2csc(NC(=O)c3cccn3Cc3ccnc(F)c3)n2)n(C)n1 [Compound B94, (E)-1-((2-fluoropyridin-4-yl)methyl)-N-(4-(2-(3-isopropyl-1-methyl-1H-pyrazol-5-yl)vinyl)thiazol-2-yl)-1H-pyrrole-2-carboxamide] | >24.5 | >24 | – | –
9 | 249 nM | 1880 nM | 0.24% | 3340 nM | 108 nM | 4.13% | 0.29% | 9990 nM | 296 nM | 0.4% | – | – | – | – | CC(=O)N1CCCCC1c1ccc(N2CCC[C@@H]2c2csc(NC(=O)c3cccn3Cc3ccncc3)n2)cc1 (stereo partly drawn) [Compound A58, N-(4-((2R)-1-(4-(1-acetylpiperidin-2-yl)phenyl)pyrrolidin-2-yl)thiazol-2-yl)-1-(pyridin-4-ylmethyl)-1H-pyrrole-2-carboxamide] | 17.4 | 2.7 | – | –
